The source made the active and inactive calls. The rule behind the calls is not given here.
What was measured:
[1] = target: C-X-C chemokine receptor type 4 (Homo sapiens) (UniProt P61073); test: Inhibition of biotinylated TN14003 binding to CXCR4 in human MDA-MB-231 cells preincubated for 10 mins followed by biotinylated-TN14003 addition measured after 30 mins by streptavidin-rhodamine staining based fluorescence microscopic analysis; assay type: cell-based
[2] = target: C-X-C chemokine receptor type 4 (Homo sapiens) (UniProt P61073); test: Inhibition of CXCR4-mediated chemotaxis in human MDA-MB-231 cells assessed as reduction in CXCL12alpha-induced cell invasion at 100 nM after 22 hrs by hematoxylin/eosin dye-based matrigel assay relative to control
[3] = tested on: Mus musculus; test: Antiinflammatory activity in C57Bl/6J mouse assessed as inhibition of carrageenan-induced paw edema at 10 mg/kg, ip treated for 2 days measured 2 hrs post last dose by caliper method relative to control; assay type: functional

Chain of C-X-C chemokine receptor type 4 (Homo sapiens) (P61073 whole entry): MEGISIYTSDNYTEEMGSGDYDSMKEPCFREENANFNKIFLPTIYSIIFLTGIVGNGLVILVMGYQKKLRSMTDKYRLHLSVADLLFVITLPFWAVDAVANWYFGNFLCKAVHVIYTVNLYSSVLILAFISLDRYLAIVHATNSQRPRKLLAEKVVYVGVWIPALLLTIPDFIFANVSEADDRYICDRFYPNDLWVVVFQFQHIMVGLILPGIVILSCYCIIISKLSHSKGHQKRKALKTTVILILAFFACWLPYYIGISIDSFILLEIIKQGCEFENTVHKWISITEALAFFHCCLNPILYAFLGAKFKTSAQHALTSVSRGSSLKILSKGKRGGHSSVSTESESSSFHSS

SMILES | EC [1] [nM] | inhibition [2] [%] | inhibition in vivo at 10 mg/kg [3] [%] | inhibition [3]
c1ccc(NCc2ccc(CNc3ccccc3)nc2)cc1 | 1000 |  |  | 
c1cc(CN2CCCNCCNCCCNCC2)ccc1CN1CCCNCCNCCCNCC1 |  | 62 |  | inactive
Cc1ccccc1NCc1ccc(CNc2ccccc2C)nc1 | 1000 |  |  | 
Fc1cccc(NCc2ccc(CNc3cccc(F)c3)nc2)c1 | 100 | 82.4 | 12 | 
O=[N+]([O-])c1ccc(NCc2ccc(CNc3ccc([N+](=O)[O-])cc3)nc2)cc1 | 1 | 80.3 | 13 | 
COc1ccc(NCc2ccc(CNc3ccc(OC)cc3)nc2)cc1 | 1000 |  |  | 
COc1cccc(NCc2ccc(CNc3cccc(OC)c3)nc2)c1 | 100 | 76.8 |  | inactive
COc1ccccc1NCc1cccc(CNc2ccccc2OC)n1 |  | < 1 |  | 
O=[N+]([O-])c1cccc(NCc2ccc(CNc3cccc([N+](=O)[O-])c3)nc2)c1 | 100 | 73.4 |  | 
c1ccc(NCc2ccc(CNc3ccccn3)cc2)nc1 |  |  | 40 | 
O=[N+]([O-])c1ccccc1NCc1ccc(CNc2ccccc2[N+](=O)[O-])nc1 | 1000 |  |  | 
O=[N+]([O-])c1ccccc1CNc1ccc(NCc2ccccc2[N+](=O)[O-])nc1 | 1000 |  |  | 
Fc1ccccc1NCc1ccc(CNc2ccccc2F)nc1 | 1000 |  |  | 
COc1ccccc1NCc1ccc(CNc2ccccc2OC)nc1 |  | 84.1 | 11 | 
Cc1cccc(NCc2ccc(CNc3cccc(C)c3)nc2)c1 |  | 99 |  | inactive

Now from value to molecule, other results behind:

EC [1] [nM] | SMILES | inhibition [2] [%] | inhibition in vivo at 10 mg/kg [3] [%] | inhibition [3]
> 1000 | CCc1ccc(CNc2ccc(NCc3ccc(CC)cc3)nc2)cc1 |  |  | 
100 | Cc1ccccc1CNc1ccc(NCc2ccccc2C)nc1 | 82.4 | 3 | 
1000 | Brc1ccc(CNc2ccc(NCc3ccc(Br)cc3)nc2)cc1 |  |  | 
1000 | Fc1ccc(CNc2ccc(NCc3ccc(F)cc3)nc2)cc1 |  |  | 
100 | Cc1cccc(CNc2ccc(NCc3cccc(C)c3)nc2)c1 | 50.4 |  | 
100 | Fc1cccc(CNc2ccc(NCc3cccc(F)c3)nc2)c1 | 4.8 |  | 
10 | Cc1ccc(CNc2ccc(NCc3ccc(C)cc3)nc2)cc1 | 35.7 |  | 
100 | Cc1ccc(NCc2ccc(CNc3ccc(C)cc3)nc2)cc1 | 85.1 |  | inactive
1000 | Clc1ccc(NCc2ccc(CNc3ccc(Cl)cc3)nc2)cc1 |  |  | 
100 | Fc1ccccc1CNc1ccc(NCc2ccccc2F)nc1 | 53.3 |  | 
1000 | CCc1ccc(NCc2ccc(CNc3ccc(CC)cc3)nc2)cc1 |  |  | 
10 | Clc1ccc(CNc2ccc(NCc3ccc(Cl)cc3)nc2)cc1 | 83.7 | 8 | 
1000 | O=[N+]([O-])c1ccc(CNc2ccc(NCc3ccc([N+](=O)[O-])cc3)nc2)cc1 |  |  | 
1000 | Fc1ccc(NCc2ccc(CNc3ccc(F)cc3)nc2)cc1 |  |  | 
1000 | O=[N+]([O-])c1cccc(CNc2ccc(NCc3cccc([N+](=O)[O-])c3)nc2)c1 |  |  | 
> 1000 | COc1ccccc1CNc1ccc(NCc2ccccc2OC)nc1 |  |  | 
> 1000 | COc1cccc(CNc2ccc(NCc3cccc(OC)c3)nc2)c1 |  |  | 
1000 | c1ccc(CNc2ccc(NCc3ccccc3)nc2)cc1 |  |  | 
1000 | Brc1ccc(NCc2ccc(CNc3ccc(Br)cc3)nc2)cc1 |  |  | 

Reference: ChEMBL document CHEMBL4371032, “Synthesis and evaluation of 2,5-diamino and 2,5-dianilinomethyl pyridine analogues as potential CXCR4 antagonists” (2019)
